Experimental findings from patent US20240166658A1, “PORPHYRIN DERIVATIVES AND USES THEREOF” (University of Tasmania, priority 2021, published 2024) are described below.

Experiment [1] is described as follows: UV-Vis host-guest titration, association constant. The format is binding. The procedure:
(§1) Path length of the quartz cell was 1 cm. For UV-vis titrations, a stock solution of host was prepared (2.2×10^−3 M) in dichloromethane (DCM) and serially diluted to the required concentrations. Working solutions of tetrabutylammonium (TBA) anion salts or guest molecules were prepared in the same manner Host−guest titrations used solutions of guest prepared in the working concentration of host solution, according to the procedure of Thordarson, 2011.
UV-vis spectroscopic host−guest titrations were performed in accordance with the methodologies of Thordarson, 2011. Solutions of host in dichloromethane were prepared. Solutions of guest were then prepared in the host solution. Aliquots of guest in host solution were added to host solution and sequentially analysed until a known molar equivalent of guest was added. The amount of guest added per aliquot was ascertained by a preliminary screening experiment; strong association constants required smaller molar equivalents so more information could be collected. […] The inverse is true for weaker binding interactions. Molar equivalents between 0.1-5 typically provided adequate information for modelling. The data was then used to simulate binding isotherms using www.supramolecular.org (Hibbert and Thordarson, 2016). The data was fitted to 1:1, 1:2 and 2:1 equilibria making no assumptions about the cooperativity of the binding interactions and modelled using different algorithms. These experiments mainly used the Nelder-Mead (Simplex) method.
A host solution of host (9) in dichloromethane was monitored using UV-Vis analysis as 0.5-10 equivalents of each PFAS was added. […] The data was processed using Bindfit isotherm simulators using both Nelder-Mead and L-BFGS-B methods (Thordarson, 2011).
To highlight any potential binding preferences across the PFCAs from the host molecules, triplicates of host−guest addition titrations were performed using host (9) and the TBA salts of the nine different deprotonated PFCAs.
Host (12) was also modelled for secondary binding interactions in the presence of additional guest (Table 9).

A short description of experiment [2]: PFCA guest response screening (RGB analysis, UV-Vis). The procedure: A Puluz® 20 cm portable light tent with moderate and dispersed white LED lighting was used to photograph samples using an iPhone 6S plus camera on a fixed tripod. The automatic flash settings were disabled so there was no reflective interference on the sample vials. Samples that were being directly compared were photographed together to ensure lighting conditions and settings were consistent. The photographs were analysed using ImageJ software according to the procedure of Gallagher, 2014b. Multiple RGB values were chosen from areas of each sample at random to provide an “average” RGB value (Menesatti et al., 2012; Gallagher, 2014a; Phuangsaijai et al., 2021). Those RGB values were used to produce an artificial colour tile for visual comparison, or parameterized for modelling.
To quantify a colour difference, RGB values were transformed within the CIELab colour space. The difference, expressed as ΔE, was determined by measuring the relative distance between two colours. The numeric ΔE value can be used to predict how the two colours are perceived by a standard observer; a ΔE>2 is considered the minimum value to achieve a “just noticeable difference” (JND) (Table 1), which is the smallest difference required for an untrained observer to be able to determine two colours as being different (Castillo et al., 2021).
Experiments were performed at concentrations that could be monitored by the naked eye for practical sensing of PFAS in the field. Complexes of hosts (9), (11) and (12) were formed with the nine different perfluorocarboxylic acids (PFCAs) shown in Table 2 above and the colours of each host−PFCA complex were photographed in a lightbox and analysed using ImageJ software RGB analysis. Pixels of the solution were chosen at random to provide an RGB value. Multiple RGB values were recorded for each host−PFCA solution, and an average colour can be produced. From those values an RGB parameter was used to give a response value for modelling (Tahir et al., 2016).
After preliminary screenings, UV-Vis spectra were collected before and after the addition of 1 molar equivalent of each PFCA for each host, and the degree of complexation was noted by shifts in the Soret bands and formation of a peak at ca. 650 nm. To eliminate dilution effects, PFCA guest solutions were prepared in the equivalent concentration of host. If there was a notable host−guest interaction for a particular PFCA, the host−guest binding was investigated with more rigorous UV-Vis experiments, binding studies, and further colour analyses. Throughout these investigations, PFOA was considered the “average” PFCA both because of its position in the range of PFCA sizes and because its prevalence is often an indication of broader PFAS contamination. In any experiment where binding was further investigated for a particular PFCA, it was typically replicated with PFOA for comparison.

A short description of experiment [3]: UV-Vis host-guest titration, association constant. The format is binding. The note with it: host (9) in dichloromethane; triplicate, TBA salt and acid; Bindfit. Here is the method: as §1
(§2) UV-vis spectroscopic host−guest titrations were performed in accordance with the methodologies of Thordarson, 2011. Solutions of host in dichloromethane were prepared. Solutions of guest were then prepared in the host solution. Aliquots of guest in host solution were added to host solution and sequentially analysed until a known molar equivalent of guest was added. The amount of guest added per aliquot was ascertained by a preliminary screening experiment; strong association constants required smaller molar equivalents so more information could be collected. By way of example, host (9) responded to 0.1 molar equivalent of PFBA strongly, so an addition of 1 molar equivalent of PFBA would result in a loss of information. The inverse is true for weaker binding interactions. […]
(§3) A host solution of host (9) in dichloromethane was monitored using UV-Vis analysis as 0.5-10 equivalents of each PFAS was added. […]

Experiment [4] in a line: UV-Vis host-guest titration, association constant. Conditions: host (9) in dichloromethane; triplicate, TBA salt and acid; Bindfit. Format: binding. Here is the method:
as §1, §2, §3
The source holds these as a separate data set.

Setting [5] is: host + one equivalent PFBA in dichloromethane.
[6] abbreviates: host + one equivalent PFDA in dichloromethane.
[7] abbreviates: host + one equivalent PFDoDA in dichloromethane.
Setting [8] is: host + one equivalent PFHpA in dichloromethane.
[9] abbreviates: host + one equivalent PFHxA in dichloromethane.
[10] abbreviates: host + one equivalent PFNA in dichloromethane.
The mark [11] stands for this setting: host + one equivalent PFOA in dichloromethane.
Where [12] appears, read: host + one equivalent PFPeA in dichloromethane.
The mark [13] stands for this setting: host + one equivalent PFUnDA in dichloromethane.

As to `O=C(Nc1ccccc1-c1c2nc(c(-c3ccccc3NC(=O)C(F)(F)C(F)(F)C(F)(F)C(F)(F)C(F)(F)C(F)(F)C(F)(F)C(F)(F)C(F)(F)C(F)(F)C(F)(F)F)c3ccc([nH]3)c(-c3ccccc3NC(=O)C(F)(F)C(F)(F)C(F)(F)C(F)(F)C(F)(F)C(F)(F)C(F)(F)C(F)(F)C(F)(F)C(F)(F)C(F)(F)F)c3nc(c(-c4ccccc4NC(=O)C(F)(F)C(F)(F)C(F)(F)C(F)(F)C(F)(F)C(F)(F)C(F)(F)C(F)(F)C(F)(F)C(F)(F)C(F)(F)F)c4ccc1[nH]4)C=C3)C=C2)C(F)(F)C(F)(F)C(F)(F)C(F)(F)C(F)(F)C(F)(F)C(F)(F)C(F)(F)C(F)(F)C(F)(F)C(F)(F)F` [host (12), α,α,α,α-5,10,15,20-tetrakis(2-(tricosafluorododecanoylamino)phenyl) porphyrin], the K in experiment [1] (1 Host:1 Guest binding mode) is 3.76 × 10^4. Besides, the K11 in experiment [1] (1 Host:2 Guest binding mode) is reported as 1.76 × 10^6; in experiment [1] (2 Host:1 Guest binding mode) it was 2.37 × 10^5. For the same molecule, the K12 in experiment [1] (1 Host:2 Guest binding mode) is 7.92 × 10^4. Also, in experiment [1] (2 Host:1 Guest binding mode), the K21 is reported as 6.69 × 10^4. In addition, the “Absorbance @ 650 nm” value stood at 0.0906 in experiment [2] (setting [5]); 0.0918 in experiment [2] (setting [6]); 0.0769 in experiment [2] (setting [7]); 0.0737 in experiment [2] (setting [8]); 0.0728 in experiment [2] (setting [9]); 0.0953 in experiment [2] (setting [10]). For the same molecule, the “Absorbance @ 650 nm” value in experiment [2] (setting [11]) came to 0.0913; in experiment [2] (setting [12]), 0.0692; in experiment [2] (setting [13]), 0.0808. Also, the ΔEHost-PFCA in experiment [2] (host vs host + PFBA) came to 21.1; in experiment [2] (host vs host + PFDA) it was 22.3; in experiment [2] (host vs host + PFDoDA) it was 17.9; in experiment [2] (host vs host + PFHpA), 16.3; in experiment [2] (host vs host + PFHxA), 17.5; in experiment [2] (host vs host + PFNA), 22.3. The results for the ΔEHost-PFCA in experiment [2] (host vs host + PFOA), in experiment [2] (host vs host + PFPeA) and in experiment [2] (host vs host + PFUnDA) were 21.8, 9.8 and 18.8, respectively.

As for `O=C(Nc1ccccc1-c1c2nc(c(-c3ccccc3NC(=O)C(F)(F)C(F)(F)C(F)(F)C(F)(F)C(F)(F)C(F)(F)C(F)(F)F)c3ccc([nH]3)c(-c3ccccc3NC(=O)C(F)(F)C(F)(F)C(F)(F)C(F)(F)C(F)(F)C(F)(F)C(F)(F)F)c3nc(c(-c4ccccc4NC(=O)C(F)(F)C(F)(F)C(F)(F)C(F)(F)C(F)(F)C(F)(F)C(F)(F)F)c4ccc1[nH]4)C=C3)C=C2)C(F)(F)C(F)(F)C(F)(F)C(F)(F)C(F)(F)C(F)(F)C(F)(F)F` [host (9), α,α,α,α-5,10,15,20-tetrakis(2-(pentadecafluorooctanoylamino)phenyl)porphyrin], the “K value (averaged association constant Ka)” value in experiment [3] is listed as 12999; in experiment [4] it was 23968; in experiment [1] (host (9) in dichloromethane, triplicate, TBA salt and acid, Bindfit), 1010. The “Absorbance @ 650 nm” value amounted to 0.04939 in experiment [2] (setting [5]); 0.03023 in experiment [2] (setting [6]); 0.01719 in experiment [2] (setting [7]); 0.04879 in experiment [2] (setting [8]); 0.04964 in experiment [2] (setting [9]); 0.02986 in experiment [2] (setting [10]). Further, the “Absorbance @ 650 nm” value in experiment [2] (setting [11]) was 0.02885; in experiment [2] (setting [12]) it was 0.04302; in experiment [2] (setting [13]), 0.02958. Also, the ΔEHost-PFCA is listed as 46.1 in experiment [2] (host vs host + PFBA); 39.6 in experiment [2] (host vs host + PFDA); 22.4 in experiment [2] (host vs host + PFDoDA); 47.2 in experiment [2] (host vs host + PFHpA); 47.3 in experiment [2] (host vs host + PFHxA); 38.5 in experiment [2] (host vs host + PFNA). For the same molecule, the values for the ΔEHost-PFCA in experiment [2] (host vs host + PFOA), in experiment [2] (host vs host + PFPeA) and in experiment [2] (host vs host + PFUnDA) were 39.3, 46.2 and 38.5, respectively.
